Results reported in ChEMBL document CHEMBL1134199, “Peptoids as endothelin receptor antagonists” (Bioorg Med Chem Lett, 2001).
pIC50: −log10 of the molar value.

Tests used:
[1] = molecular target: T1, Endothelin receptor type B (Sus scrofa, UniProt P35463); assay: Ability to bind with Endothelin B receptor competitively in the presence of (125 I) endothelin using receptor binding assay.
T1 sequence (P35463 whole entry): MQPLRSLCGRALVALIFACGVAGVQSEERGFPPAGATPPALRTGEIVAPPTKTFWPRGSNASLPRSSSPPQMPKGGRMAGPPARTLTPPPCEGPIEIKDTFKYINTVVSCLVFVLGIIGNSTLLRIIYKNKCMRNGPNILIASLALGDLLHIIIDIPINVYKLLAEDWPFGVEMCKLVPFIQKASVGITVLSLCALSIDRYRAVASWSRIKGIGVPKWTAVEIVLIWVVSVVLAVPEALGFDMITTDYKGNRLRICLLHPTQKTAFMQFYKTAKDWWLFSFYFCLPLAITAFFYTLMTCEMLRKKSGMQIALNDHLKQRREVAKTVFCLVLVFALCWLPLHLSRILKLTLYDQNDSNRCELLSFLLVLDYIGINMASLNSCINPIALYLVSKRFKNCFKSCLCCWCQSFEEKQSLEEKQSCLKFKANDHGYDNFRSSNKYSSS

Endothelin-1 receptor = molecular target: T2, Endothelin-1 receptor (Sus scrofa, UniProt Q29010); assay: Ability to bind with Endothelin A receptor competitively in the presence of (125 I) endothelin using receptor binding assay.
T2 sequence (Q29010 whole entry): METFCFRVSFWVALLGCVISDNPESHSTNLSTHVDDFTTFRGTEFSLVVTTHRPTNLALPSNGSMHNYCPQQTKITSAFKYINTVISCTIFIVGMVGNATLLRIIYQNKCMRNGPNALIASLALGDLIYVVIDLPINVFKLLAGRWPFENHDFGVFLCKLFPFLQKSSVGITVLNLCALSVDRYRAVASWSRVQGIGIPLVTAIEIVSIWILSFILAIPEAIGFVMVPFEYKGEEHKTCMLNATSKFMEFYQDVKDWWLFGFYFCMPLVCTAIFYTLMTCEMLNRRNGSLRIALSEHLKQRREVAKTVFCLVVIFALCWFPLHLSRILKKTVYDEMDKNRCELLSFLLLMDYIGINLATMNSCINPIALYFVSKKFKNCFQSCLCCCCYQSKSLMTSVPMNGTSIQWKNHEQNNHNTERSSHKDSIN

pIC50 [1] | pIC50 (Endothelin-1 receptor) | SMILES
6.18 | 5.05 | O=C(O)C(Cc1c[nH]c2ccccc12)N(Cc1cc2c(cc1Cl)OCO2)C(=O)/C=C/c1ccc2c(c1)OCO2 (stereo not given)
4.31 | 4.52 | COc1ccc(C(=O)N(Cc2cc3c(cc2Cl)OCO3)C(Cc2c[nH]c3ccccc23)C(=O)O)cc1 (stereo not given)
4.72 |  | COc1ccc(CC(C(=O)O)N(Cc2ccc(OC)cc2)Cc2cc(OC)c(OC)c(OC)c2)cc1 (stereo not given)
5.26 | < 4.00 | COc1ccc(CN(Cc2cc3c(cc2Cl)OCO3)C(Cc2ccc(O)cc2)C(=O)O)cc1 (stereo not given)
5.19 | 4.57 | COc1ccc(CN(C(=O)/C=C/c2ccc3c(c2)OCO3)C(Cc2ccccc2)C(=O)O)cc1 (stereo not given)
4.26 | 4.67 | CCOC(=O)CN(Cc1cc2c(cc1Cl)OCO2)C(Cc1ccc(O)cc1)C(=O)O (stereo not given)
6.33 | 5.00 | COc1ccc(CN(C(=O)/C=C/c2ccc3c(c2)OCO3)C(Cc2c[nH]c3ccccc23)C(=O)O)cc1 (stereo not given)
4.90 | 5.22 | COc1ccc(CN(C(=O)/C=C/c2ccc3c(c2)OCO3)C(Cc2ccc(O)cc2)C(=O)O)cc1 (stereo not given)
4.18 | 4.42 | O=C(O)C(Cc1ccc(O)cc1)N(Cc1cc2c(cc1Cl)OCO2)C(=O)/C=C/c1ccc2c(c1)OCO2 (stereo not given)
5.17 | 4.79 | O=C(O)C(Cc1c[nH]c2ccccc12)N(Cc1cc2c(cc1Cl)OCO2)Cc1cc2c(cc1Cl)OCO2 (stereo not given)
 | 4.44 | COc1ccc(CN(Cc2cc(OC)cc(OC)c2)C(Cc2ccc(O)cc2)C(=O)O)cc1 (stereo not given)
 | 4.51 | COc1cccc(CN(C(=O)/C=C/c2ccc3c(c2)OCO3)C(Cc2ccc(O)cc2)C(=O)O)c1 (stereo not given)
< 4.00 | < 4.00 | COc1ccc(CN(C(=O)c2ccc(OC)cc2)C(Cc2c[nH]c3ccccc23)C(=O)O)cc1 (stereo not given)
4.46 | 4.38 | COc1ccc(CN(Cc2cc(OC)c(OC)c(OC)c2)C(Cc2c[nH]c3ccccc23)C(=O)O)cc1 (stereo not given)
